The text below walks through data of patent US20230227426A1 (Akebia Therapeutics, Inc., priority 2020, published 2023).

Holding throughout (assay type): biochemical
Test [1] deals with T1, full-length human PHD1 (Homo sapiens, UniProt Q96KS0).
T1 construct: FLAG (N); purchased Active Motif (Carlsbad, Calif., USA) 81064; host or cells: baculovirus expression system
Briefly: TR-FRET assay for PHD enzymes, PHD1. The text has this: (§1) The resulting proximity of the donor fluorophore complex, monoclonal antibody anti-6His-Terbium (Tb)-cryptate Gold, bound to the His-tagged VHL protein, EloB, EloC complex (His-VBC) and the acceptor fluorophore, SA-D2 complex, bound to HIF-1α-hydroxyproline results in a fluorescence resonance energy transfer signal that can be detected and quantified
Recombinant human PHD1 protein (catalog #81064, Lot #24717001) was purchased from Active Motif (Carlsbad, Calif., USA). PHD1 was expressed in a baculovirus expression system as the full-length protein (NCBI accession number NP_542770.2) with an N-terminal FLAG tag (molecular weight 44.9 kDa). Purity (>90%) was assessed by SDS-PAGE.
(§2) For this, 5 μL PHD inhibitor compound was serially diluted with dilution buffer (50 mM HEPES [4-(2-hydroxyethyl)-1-piperazineethanesulfonic acid] pH 7.5, 50 mM sodium chloride [NaCl], 0.01% Tween-20, 0.01% purified bovine serum albumin [BSA]) and mixed with 5 μL PHD enzyme mix prepared as a 4× concentrate in the dilution buffer containing PHD enzyme (60 nM PHD1, 20 nM PHD2, 140 nM PHD3), 40 μM ferrous ammonium sulfate (FAS), 4 mM sodium (Na) ascorbate.
(§3) The IC50 values (mean, standard deviation, standard error of the mean, geometric mean and 95% confidence interval) were determined using a four-parameter curve-fit using GraphPad Prism 7.0 (GraphPad, La Jolla, Calif., USA) and represent the compound concentration plotted against the calculated ratio of 665 nm and 615 nm.
Background: Time-resolved FRET reads energy transfer from a long-lived donor to a nearby acceptor.

Test [2] addresses T2, full-length human PHD2 (Homo sapiens, UniProt Q9GZT9).
T2 construct: The PHD2 construct contained amino acids 1 to 426 of PHD2; His tag (N, cleaved yes); TEV protease cleavage site (N, cleaved yes); host or cells: Sf9 insect cells (baculovirus)
Briefly: TR-FRET assay for PHD enzymes, PHD2. To be noted: read-out: PHD2 IC5 0. How it is done:
as §1, §2, §3

Test [3] has as its target T3, full-length human PHD3 (Homo sapiens, UniProt Q9H6Z9).
T3 construct: 6-His (N); purchased Active Motif (Carlsbad, Calif., USA) 81033; host or cells: E. coli
Briefly: TR-FRET assay for PHD enzymes, PHD3.
From the text: as §1
Recombinant human PHD3 protein (molecular weight 31.1 kDa) was purchased from Active Motif (Carlsbad, Calif., USA). It was expressed in E. coli as the full-length protein (NCBI accession number NP_071356.1) with an N-terminal 6-His tag (catalog #81033, Lot #24417001).
as §2, §3

T1 sequence (Q96KS0 whole entry): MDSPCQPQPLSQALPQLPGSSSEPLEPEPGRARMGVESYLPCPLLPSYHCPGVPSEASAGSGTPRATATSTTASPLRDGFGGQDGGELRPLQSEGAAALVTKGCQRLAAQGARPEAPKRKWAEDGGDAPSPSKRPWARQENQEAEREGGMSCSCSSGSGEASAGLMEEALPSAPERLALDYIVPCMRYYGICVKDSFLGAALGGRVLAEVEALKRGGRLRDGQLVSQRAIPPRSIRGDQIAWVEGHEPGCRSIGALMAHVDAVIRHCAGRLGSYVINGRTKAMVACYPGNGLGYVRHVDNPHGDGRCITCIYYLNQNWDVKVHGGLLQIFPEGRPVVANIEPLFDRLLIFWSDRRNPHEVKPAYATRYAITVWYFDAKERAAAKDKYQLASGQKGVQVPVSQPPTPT
T2 sequence (Q9GZT9 whole entry, the tested form may be a part): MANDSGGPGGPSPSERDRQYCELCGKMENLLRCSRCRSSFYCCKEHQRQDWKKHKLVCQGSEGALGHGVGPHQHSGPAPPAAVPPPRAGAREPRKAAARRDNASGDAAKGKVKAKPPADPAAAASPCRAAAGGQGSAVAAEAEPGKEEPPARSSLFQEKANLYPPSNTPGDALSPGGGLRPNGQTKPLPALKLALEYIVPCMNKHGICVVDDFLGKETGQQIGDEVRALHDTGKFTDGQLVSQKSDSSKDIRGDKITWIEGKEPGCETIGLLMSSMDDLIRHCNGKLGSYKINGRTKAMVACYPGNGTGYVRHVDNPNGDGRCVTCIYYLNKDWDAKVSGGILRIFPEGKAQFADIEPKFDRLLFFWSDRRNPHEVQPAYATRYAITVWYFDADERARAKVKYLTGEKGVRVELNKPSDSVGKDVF
T3 sequence (Q9H6Z9 whole entry): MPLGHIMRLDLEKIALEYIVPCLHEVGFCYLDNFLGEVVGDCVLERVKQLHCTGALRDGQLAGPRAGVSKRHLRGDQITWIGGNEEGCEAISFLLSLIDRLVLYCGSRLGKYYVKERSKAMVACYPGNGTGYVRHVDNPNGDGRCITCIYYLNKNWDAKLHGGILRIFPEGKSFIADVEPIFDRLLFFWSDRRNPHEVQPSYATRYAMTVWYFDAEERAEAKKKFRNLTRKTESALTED

As to `O=C(O)c1ccc(-n2ncc(-c3ccc(Br)cc3)c2O)nc1` [Compound 3, 6-(4-(4-Bromophenyl)-5-hydroxy-1H-pyrazol-1-yl) nicotinic acid], the results for the IC50 in test [1], in test [2] and in test [3] were below 0.1 µM, below 0.1 µM and 0.1 to 1 µM, respectively.
With `O=C(O)c1ccc(-n2ncc(-c3ccc(Cl)cc3)c2O)nc1` [Compound 5, 6-(4-(4-Chlorophenyl)-5-hydroxy-1H-pyrazol-1-yl)nicotinic acid], the IC50 is below 0.1 µM in test [1], below 0.1 µM in test [2] and 0.1 to 1 µM in test [3].
For the compound `O=C(O)c1ccc(-n2ncc(-c3ccc(F)cc3)c2O)nc1` [Compound 7, 6-(4-(4-Fluorophenyl)-5-hydroxy-1H-pyrazol-1-yl)nicotinic acid], the IC50 is below 0.1 µM in test [1], below 0.1 µM in test [2] and 1 to 10 µM in test [3].
Turning to `Cc1cc(C#N)ccc1-c1cnn(-c2ccc(C(=O)OC(C)(C)C)cn2)c1O` [Compound 8, Tert-butyl 6-(4-(4-cyano-2-methylphenyl)-5-hydroxy-1H-pyrazol-1-yl)nicotinate], the IC50 in test [1], in test [2] and in test [3] was below 0.1 µM each time.
As to `Cc1nn(-c2ccc(C(=O)O)cn2)c(O)c1-c1ccc(C#N)cc1` [Compound 9, 6-(4-(4-Cyanophenyl)-5-hydroxy-3-methyl-1H-pyrazol-1-yl)nicotinic acid], the IC50 in test [1], in test [2] and in test [3] was below 0.1 µM each time.
Consider `Cc1nn(-c2ccc(C(=O)OC(C)(C)C)cn2)c(O)c1-c1ccc(C#N)cc1` [Compound 10, Tert-butyl 6-(4-(4-cyanophenyl)-5-hydroxy-3-methyl-1H-pyrazol-1-yl)nicotinate], for which the IC50 is below 0.1 µM in test [1], below 0.1 µM in test [2] and at least 10 µM in test [3].
Regarding `COC(=O)c1ccc(-n2nc(C)c(-c3ccc(C#N)cc3)c2O)nc1` [Compound 11, Methyl 6-(4-(4-cyanophenyl)-5-hydroxy-3-methyl-1H-pyrazol-1-yl)nicotinate], the IC50 was below 0.1 µM in test [1], below 0.1 µM in test [2] and 0.1 to 1 µM in test [3].
As for `N#Cc1cc(F)c(-c2cnn(-c3ccc(C(=O)O)cn3)c2O)cc1F` [Compound 12, 6-(4-(4-Cyano-2,5-difluorophenyl)-5-hydroxy-1H-pyrazol-1-yl)nicotinic acid], the IC50 in test [1] was below 0.1 µM; in test [2] it was below 0.1 µM; in test [3], 0.1 to 1 µM.
`N#Cc1ccc(-c2cnn(-c3ccc(C(=O)O)cn3)c2O)cc1F` [Compound 13, 6-(4-(4-cyano-3-fluorophenyl)-5-hydroxy-1H-pyrazol-1-yl)nicotinic acid]: the IC50 in test [1], in test [2] and in test [3] was below 0.1 µM throughout.
In the case of `Cc1cc(-c2cnn(-c3ccc(C(=O)O)cn3)c2O)ccc1O` [Compound 16, 6-(5-hydroxy-4-(4-hydroxy-3-methylphenyl)-1H-pyrazol-1-yl)nicotinic acid], the IC50 fell in the range of 0.1 to 1 µM in test [1], 0.1 to 1 µM in test [2] and 1 to 10 µM in test [3].
For the compound `O=C(O)c1ccc(-n2ncc(-c3ccc(Cl)nc3)c2O)nc1` [Compound 17, 6-(4-(6-chloropyridin-3-yl)-5-hydroxy-1H-pyrazol-1-yl)nicotinic acid], the IC50 in test [1], in test [2] and in test [3] was below 0.1 µM throughout.
With `Cc1cc(-n2nc(C)c(-c3ccc(C#N)cc3)c2O)ncc1C(=O)O` [Compound 18, 6-(4-(4-cyanophenyl)-5-hydroxy-3-methyl-1H-pyrazol-1-yl)-4-methylnicotinic acid], the IC50 in test [1], in test [2] and in test [3] was below 0.1 µM each time.
Take `N#Cc1ccc(-c2cnn(-c3ccc(C(=O)O)cn3)c2O)c(O)c1` [Compound 21, 6-(4-(4-cyano-2-hydroxyphenyl)-5-hydroxy-1H-pyrazol-1-yl)nicotinic acid]: the IC50 in test [1] is below 0.1 µM; in test [2] it was below 0.1 µM; in test [3], 0.1 to 1 µM.
For `Cc1cc(C#N)ccc1-c1c(C)nn(-c2ccc(C(=O)O)cn2)c1O` [Compound 24, 6-(4-(4-cyano-2-methylphenyl)-5-hydroxy-3-methyl-1H-pyrazol-1-yl)nicotinic acid], the IC50 in test [1], in test [2] and in test [3] was below 0.1 µM in each case.
On to `Cc1nn(-c2ccc(C(=O)O)cn2)c(O)c1-c1ccc(Cl)c(F)c1` [Compound 26, 6-(4-(4-chloro-3-fluorophenyl)-5-hydroxy-3-methyl-1H-pyrazol-1-yl)nicotinic acid], for which the IC50 in test [1] is below 0.1 µM; in test [2] it was below 0.1 µM; in test [3], 0.1 to 1 µM.
As to `Cc1nn(-c2ccc(C(=O)O)cn2)c(O)c1-c1ccc(Cl)cc1F` [Compound 28, 6-(4-(4-chloro-2-fluorophenyl)-5-hydroxy-3-methyl-1H-pyrazol-1-yl)nicotinic acid], the IC50 in test [1] was below 0.1 µM; in test [2], 0.1 to 1 µM; in test [3] it was 0.1 to 1 µM.
`COc1ccc(-c2c(C)nn(-c3ccc(C(=O)O)cn3)c2O)cc1C` [Compound 32, 6-(5-hydroxy-4-(4-methoxy-3-methylphenyl)-3-methyl-1H-pyrazol-1-yl)nicotinic acid]: the IC50 in test [1] and in test [2] was 0.1 to 1 µM in each case.
As to `CCc1cc(C#N)ccc1-c1cnn(-c2ccc(C(=O)O)cn2)c1O` [Compound 33, 6-(4-(4-cyano-2-ethylphenyl)-5-hydroxy-1H-pyrazol-1-yl)nicotinic acid], the IC50 in test [1] and in test [2] was below 0.1 µM in each case.
With `Cc1nn(-c2cnc(C(=O)O)cn2)c(O)c1-c1ccc(C#N)cc1` [Compound 34, 5-(4-(4-cyanophenyl)-5-hydroxy-3-methyl-1H-pyrazol-1-yl)pyrazine-2-carboxylic acid], the IC50 in test [1] and in test [2] was below 0.1 µM each time.
For `COc1cc(-c2cnn(-c3ccc(C(=O)OC(C)(C)C)cn3)c2O)ccn1` [Compound 35, Tert-butyl 6-(5-hydroxy-4-(2-methoxypyridin-4-yl)-1H-pyrazol-1-yl)nicotinate], the IC50 in test [1], in test [2] and in test [3] was below 0.1 µM throughout.
Regarding `CCOC(=O)c1ccc(-n2ncc(-c3ccc(C#N)cc3)c2O)nc1` [Compound 36, Ethyl 6-(4-(4-cyanophenyl)-5-hydroxy-1H-pyrazol-1-yl)nicotinate], the IC50 in test [1], in test [2] and in test [3] was below 0.1 µM throughout.
Turning to `CC(C)OC(=O)c1ccc(-n2ncc(-c3ccc(C#N)cc3)c2O)nc1` [Compound 37, Isopropyl 6-(4-(4-cyanophenyl)-5-hydroxy-1H-pyrazol-1-yl)nicotinate], the IC50 in test [1], in test [2] and in test [3] was below 0.1 µM each time.
Take `CC(C)(C)OC(=O)c1ccc(-n2ncc(-c3ccc(C#N)cc3)c2O)nc1` [Compound 38, Tert-butyl 6-(4-(4-cyanophenyl)-5-hydroxy-1H-pyrazol-1-yl)nicotinate]: the IC50 was below 0.1 µM in test [1], below 0.1 µM in test [2] and 1 to 10 µM in test [3].
Consider `N#Cc1ccc(-c2cnn(-c3ccc(C(=O)O)cn3)c2O)c(C(F)(F)F)c1` [Compound 40, 6-(4-(4-cyano-2-(trifluoromethyl)phenyl)-5-hydroxy-1H-pyrazol-1-yl)nicotinic acid], for which the IC50 in test [1] and in test [2] was below 0.1 µM throughout.
As for `Cc1nn(-c2ccc(C(=O)O)cn2)c(O)c1-c1cc[n+]([O-])cc1` [Compound 41, 4-(1-(5-carboxypyridin-2-yl)-5-hydroxy-3-methyl-1H-pyrazol-4-yl)pyridine 1-oxide], the IC50 in test [1] and in test [2] was at least 10 µM throughout.
For `Cc1nn(-c2ccc(C(=O)O)cn2)c(O)c1-c1ccc(Cl)c(C#N)c1` [Compound 42, 6-(4-(4-chloro-3-cyanophenyl)-5-hydroxy-3-methyl-1H-pyrazol-1-yl)nicotinic acid], the IC50 in test [1] and in test [2] was below 0.1 µM each time.
`COc1ccc(-c2cnn(-c3ccc(C(=O)O)cn3)c2O)cn1` [Compound 43, 6-(5-Hydroxy-4-(6-methoxypyridin-3-yl)-1H-pyrazol-1-yl)nicotinic acid]: the IC50 in test [1] and in test [2] was below 0.1 µM throughout.
`Cc1nn(-c2ccc(C(=O)O)cn2)c(O)c1-c1ccc(C#N)c(Cl)c1` [Compound 44, 6-(4-(3-chloro-4-cyanophenyl)-5-hydroxy-3-methyl-1H-pyrazol-1-yl)nicotinic acid]: the IC50 in test [1] and in test [2] was below 0.1 µM in each case.
